Measured values taken from the NIST ThermoML archive (doi:10.1021/je500093z).

How the values were obtained:
[1] = for surface tension liquid-gas: Ring tensiometer; for viscosity / speed of sound / mass density: 101.33 kPa, Liquid; for speed of sound: Pulse-echo method; for mass density: Vibrating tube method
[2] = refractive index (Na D-line) (dimensionless); conditions: 101.33 kPa, Liquid, Standard Abbe refractometry

COS(=O)(=O)[O-].Cn1cc[n+](C)c1 [1,3-dimethylimidazolium methylsulfate]
Conditions	mass density, [1] [kg/m3]	refractive index, [2]	speed of sound, [1] [m/s]	surface tension liquid-gas, [1] [mN/m]	viscosity, [1] [mPa·s]
298.15 K	1329	1.4817	1811.5	57.6	71.7
303.15 K	1323	1.4811	1799.4	57.3	57.6
308.15 K	1319	1.4804	1787.3	56.8	46.93
313.15 K	1316	1.4797	1775.4	56.4	38.81
318.15 K	1312	1.4792	1763.6	56	32.52
323.15 K	1308	1.4785	1751.9	55.5	27.59
328.15 K	1305	1.4779	1740.3	55.1	23.67
333.15 K	1302	1.4771	1728.8	54.8	20.5

CCCCn1cc[n+](C)c1.F[P-](F)(F)(F)(F)F [1-butyl-3-methylimidazolium hexafluorophosphate]
Conditions	mass density, [1] [kg/m3]	refractive index, [2]	speed of sound, [1] [m/s]	surface tension liquid-gas, [1] [mN/m]	viscosity, [1] [mPa·s]
298.15 K	1367	1.4101	1443.6	43	273.94
303.15 K	1363	1.4085	1431.6	42.6	203.2
308.15 K	1359	1.4081	1419.8	42.2	153.99
313.15 K	1355	1.407	1408.3	41.9	118.96
318.15 K	1351	1.4068	1396.9	41.7	93.44
323.15 K	1347	1.4058	1385.8	41.2	74.6
328.15 K	1343	1.4053	1374.7	40.8	60.43
333.15 K	1339	1.4042	1363.8	40.5	49.62

CCCCn1cc[n+](C)c1.O=S(=O)([O-])O [1-butyl-3-methylimidazolium hydrogen sulfate]
Conditions	mass density, [1] [kg/m3]	refractive index, [2]	speed of sound, [1] [m/s]	surface tension liquid-gas, [1] [mN/m]	viscosity, [1] [mPa·s]
298.15 K	1224	1.5043	1689.8	43.6	439.36
303.15 K	1220	1.5	1676.7	43.2	321.95
308.15 K	1217	1.4965	1664.3	42.8	240.81
313.15 K	1214	1.4914	1652.1	42.4	183.54
318.15 K	1211	1.4857	1640.2	42	142.55
323.15 K	1208	1.4813	1628.5	41.7	112.37
328.15 K	1204	1.4762	1615.5	41.3	89.95
333.15 K	1201	1.4721	1601.5	40.9	72.88

CCCC[n+]1ccc(C)cc1.F[B-](F)(F)F [1-butyl-4-methylpyridinium tetrafluoroborate]
Conditions	mass density, [1] [kg/m3]	refractive index, [2]	speed of sound, [1] [m/s]	surface tension liquid-gas, [1] [mN/m]	viscosity, [1] [mPa·s]
298.15 K	1190	1.4507	1602.3	45.4	202.86
303.15 K	1186	1.4502	1589.7	45.1	146.57
308.15 K	1183	1.4495	1577.4	44.8	108.7
313.15 K	1179	1.4488	1565.2	44.5	82.49
318.15 K	1176	1.4482	1553.2	44.2	63.94
323.15 K	1173	1.4475	1541.2	43.9	50.51
328.15 K	1169	1.4469	1529.6	43.5	40.6
333.15 K	1166	1.4463	1517.9	43.2	33.14

CCn1cc[n+](C)c1.COS(=O)(=O)[O-] [1-ethyl-3-methylimidazolium methylsulfate]
Conditions	mass density, [1] [kg/m3]	refractive index, [2]	speed of sound, [1] [m/s]	surface tension liquid-gas, [1] [mN/m]	viscosity, [1] [mPa·s]
298.15 K	1292	1.4741	1762.1	39.8	94.91
303.15 K	1289	1.4739	1750.4	39.5	76.8
308.15 K	1285	1.4735	1738.7	39.2	61.66
313.15 K	1282	1.4721	1727	38.9	51.28
318.15 K	1279	1.4716	1715.5	38.8	42.42
323.15 K	1275	1.4706	1704	38.4	35.33
328.15 K	1272	1.4702	1692.6	38.2	30.11
333.15 K	1268	1.4698	1681.3	38	26.25

CCCCCCn1cc[n+](C)c1.F[P-](F)(F)(F)(F)F [1-hexyl-3-methylimidazolium hexafluorophosphate]
Conditions	mass density, [1] [kg/m3]	refractive index, [2]	speed of sound, [1] [m/s]	surface tension liquid-gas, [1] [mN/m]	viscosity, [1] [mPa·s]
298.15 K	1292	1.4179	1424.4	37.2	349.17
303.15 K	1288	1.4161	1411.3	36.9	253.96
308.15 K	1284	1.4148	1399.6	36.6	188.77
313.15 K	1280	1.4134	1386.7	36.3	142.99
318.15 K	1276	1.4115	1374.9	36	110.24
323.15 K	1272	1.4104	1363.4	35.7	86.42
328.15 K	1268	1.4088	1352.1	35.4	68.87
333.15 K	1264	1.4075	1340.8	35.1	55.62

CCCCCCCC[n+]1ccn(C)c1.[Cl-] [1-methyl-3-octylimidazolium chloride]
Conditions	mass density, [1] [kg/m3]	refractive index, [2]	speed of sound, [1] [m/s]	surface tension liquid-gas, [1] [mN/m]	viscosity, [1] [mPa·s]
298.15 K	1010	1.5088	1687.2	32.5	13267
303.15 K	1007	1.5085	1667.7	32.2	7770.4
308.15 K	1004	1.5061	1646.1	31.9	4755.2
313.15 K	1001	1.5058	1619.6	31.6	3006.7
318.15 K	998	1.5054	1597.1	31.3	1967.6
323.15 K	995	1.5048	1577.4	31	1323.4
328.15 K	992	1.5037	1559.6	30.7	914.13
333.15 K	989	1.5029	1543	30.4	646.96

CCCCCCCC[n+]1ccn(C)c1.F[P-](F)(F)(F)(F)F [1-octyl-3-methylimidazolium hexafluorophosphate]
Conditions	mass density, [1] [kg/m3]	refractive index, [2]	speed of sound, [1] [m/s]	surface tension liquid-gas, [1] [mN/m]	viscosity, [1] [mPa·s]
298.15 K	1234	1.4217	1404.7	36.1	603.44
303.15 K	1231	1.4211	1390.3	35.9	430.88
308.15 K	1226	1.4206	1376.6	35.6	314.44
313.15 K	1223	1.4201	1363.6	35.3	234.24
318.15 K	1219	1.4195	1351	35.1	177.79
323.15 K	1215	1.4186	1338.9	34.9	137.24
328.15 K	1211	1.4177	1327	34.6	107.58
333.15 K	1208	1.4167	1315.5	34.3	85.58

CC(C)C[P+](C)(CC(C)C)CC(C)C.Cc1ccc(S(=O)(=O)[O-])cc1 [triisobutylmethylphosphonium p-toluenesulfonate]
Conditions	mass density, [1] [kg/m3]	refractive index, [2]	speed of sound, [1] [m/s]	surface tension liquid-gas, [1] [mN/m]	viscosity, [1] [mPa·s]
298.15 K	1068	1.5185	1628.8	33.9	2132.4
303.15 K	1065	1.5181	1610.6	33.8	1363.2
308.15 K	1062	1.5174	1585.6	33.6	896.08
313.15 K	1059	1.516	1567.6	33.4	606.71
318.15 K	1056	1.5151	1551.1	33.2	422.49
323.15 K	1053	1.5144	1535.7	32.9	302.17
328.15 K	1050	1.5123	1521.5	32.8	221.27
333.15 K	1047	1.5119	1508.3	32.6	165.53
